Key:
DENV2 (NGC) = experiment: In vitro anti-DENV assay, RT-qPCR; format: cell-based, Dengue-2 virus; conditions: Dengue virus
DENV2 NS5 protein = target: T1, DENV2 NS5 protein (Dengue virus type 2, UniProt P14340); experiment: SPR (BIAcore) binding to DENV2 NS5 protein; conditions: qualitative
T1 construct: DENV2 NS5 (amino acids 1 to 900); His tag (N); made in house
Procedure: The cDNA fragment of ZIKV (ZG-01 strain) NS5 (amino acids 1 to 903), RdRp (amino acids 272 to 903), or DENV2 NS5 (amino acids 1 to 900) containing an N-terminal His tag sequence was cloned into a pET-30a-mutant vector. For protein expression, the plasmids were transformed into Rosetta™ competent cells (TIANGEN BIOTECH Co., Ltd., Beijing, China), respectively. […] Mass spectrometry was performed by Shanghai Applied Protein Technology Co. Ltd. (Shanghai, China). The concentration of a targeted protein was measured by SDS-PAGE using BSA (Sigma, St. Louis, MO) as a standard.
Surface plasmon resonance (SPR) experiments were performed in a BIAcore T100 device (BIAcore Inc., Uppsala, Sweden) using CM5 sensor chips (General Electric Company, GE) according to the protocol provided by the manufacturer. Briefly, recombinant ZIKV NS5 protein, RdRp protein, or DENV2 NS5 protein was immobilized on a CM5 chip, respectively. Different concentrations of fidaxomicin or ribavirin were injected at a flow rate of 30 μL/min for 3 min. Subsequently, data were collected for a 3-min association followed by a 20-min dissociation. The chip was regenerated by injecting 10 μL of 15 mM NaOH for 20 s. […] The binding kinetics was analyzed with the software BIAevaluation version 3.1 using a 1:1 Langmuir binding model. The Kd was calculated as previously described.

[1] = Text: a. […] Data are expressed as mean ± SD. WBC: white blood cells; Lymph: lymphocytes; Mon: monocytes; Gran: granulocytes; RBC: red blood cells; HGB: hemoglobin concentration; HCT: hematocrit; MCV: mean corpuscular volume; MCH: mean corpuscular hemoglobin; MCHC: mean corpuscular hemoglobin concentration; RDW: red blood cell distribution width; PLT: platelets; MPV: mean platelet volume; PDW: platelet distribution width.
a. […] Data are expressed as mean ± SD. ALT: alanine aminotransferase; AST: aspartate aminotransferase; T-BIL: total bilirubin; ALB: albumin; γ-GT: γ-glutamyltransferase; ALP: alkaline phosphatase; TBA: total bile acid; BUN: blood urea nitrogen; UA: uric acid; CR: creatinine; T-CHO: total cholesterol; TG: triglyceride.
a. […] Data are expressed as mean ± SD.

ZIKV ZG-01 strain = experiment: In vitro antiviral assay, plaque assay, ZIKV ZG-01
Procedure: The anti-ZIKV activity of fidaxomicin and ribavirin was evaluated in vitro by plaque assay. Various cell lines, including SNB19 (6 × 10^4/well, 10% FBS DMEM), A172 (7 × 10^4/well, 10% FBS DMEM), Vero (6 × 10^4/well 10% FBS DMEM), Huh7 (7 × 10^4/well, 10% FBS DMEM), HUVECs (7 × 10^4/well, 15% FBS M199 medium supplemented with 2 mM L-glutamine, 0.02 mg/mL endothelial cell growth supplement, and 0.05 mg/mL heparin), and A549 (6 × 10^4/well, 5% FBS DMEM), were plated in 12-well plates and allowed to attach overnight, followed by infection with ZIKV (ZG-01 strain or MR766 strain, respectively, at indicated MOI) in the presence of different concentrations of fidaxomicin, ribavirin, or vehicle control for 1 h, followed by two washes with 1 × PBS and incubated with fresh medium (without virus) consisting of corresponding concentrations of the compounds for further 48 h. The cell supernatants were collected to quantify ZIKV infection by plaque assay as previously described or by RT-qPCR. […] The anti-DENV activity of fidaxomicin was evaluated in vitro by RT-qPCR.

`CCc1c(Cl)c(O)c(Cl)c(O)c1C(=O)O[C@H]1[C@H](O)[C@H](OC)[C@H](OC/C2=C\C=C\C[C@H](O)/C(C)=C/[C@H](CC)[C@@H](O[C@@H]3OC(C)(C)[C@@H](OC(=O)C(C)C)[C@H](O)[C@@H]3O)/C(C)=C/C(C)=C/C[C@@H]([C@@H](C)O)OC2=O)O[C@@H]1C` [Fidaxomicin] showed an EC50 (DENV2 (NGC); DENV2, A549 cells) of 9.9 ± 2.5 µM, an EC90 (DENV2 (NGC); DENV2, A549 cells) of 18 ± 4.2 µM and an EC50 (DENV2 (NGC); DENV2, SNB-19, SNB19 cells) of 6.8 ± 1.5 µM. The EC90 (DENV2 (NGC); DENV2, SNB-19, SNB19 cells) was 10.6 ± 2.1 µM, the “binding to DENV2 NS5 protein (SPR)” value (DENV2 NS5 protein) was “affinity” and the maximum non-toxic dose ([1]; C57BL/6J (Ifnar1-/-), mouse, in vivo, 10 days) was > 200 mg/kg. The MPV ([1]; Ifnar1-/- C57BL/6J mice, 200 mg/kg, 10-day treatment, mean ± SD) was 4.95 ± 0.59 fL, the ALB ([1]; mouse, in vivo, 200 mg/kg) was 29.11 ± 5.19 g/L and the ALP ([1]; mouse, in vivo, 200 mg/kg) was 185.3±19.2 U/L. It also gave an ALT ([1]; mouse, in vivo, 200 mg/kg) of 39.1±4.22 U/L, an AST ([1]; mouse, in vivo, 200 mg/kg) of 130.74±18.3 U/L and a BUN ([1]; mouse, in vivo, 200 mg/kg) of 31.6 ± 3.54 mg/dL. The CR ([1]; mouse, in vivo, 200 mg/kg) was 17.62 ± 1.84 µmol/L, the “Gran#” value ([1]; mouse, in vivo, 200 mg/kg) was 0.92±0.23 10^9/L and the Gran% ([1]; mouse, in vivo, 200 mg/kg) was 19.82±4.42%. For the same compound, the HCT ([1]; mouse, in vivo, 200 mg/kg) was 38.96±2.72%, the HGB ([1]; mouse, in vivo, 200 mg/kg) was 124.14 ± 14.36 g/L and the “Lymph#” value ([1]; mouse, in vivo, 200 mg/kg) was 3.21±1.01 10^9/L. The Lymph% ([1]; mouse, in vivo, 200 mg/kg) was 75.75±8.94%, the MCH ([1]; mouse, in vivo, 200 mg/kg) was 14.73 ± 0.88 pg and the MCHC ([1]; mouse, in vivo, 200 mg/kg) was 302 ± 21.82 g/L. For the same compound, the MCV ([1]; mouse, in vivo, 200 mg/kg) was 51.61 ± 1.84 fL, the “Mon#” value ([1]; mouse, in vivo, 200 mg/kg) was 0.16±0.07 10^9/L and the Mon% ([1]; mouse, in vivo, 200 mg/kg) was 3.75±0.94%. The PDW ([1]; mouse, in vivo, 200 mg/kg) was 16.65±0.35, the PLT ([1]; mouse, in vivo, 200 mg/kg) was 891.6±337.3 10^9/L and the RBC ([1]; mouse, in vivo, 200 mg/kg) was 7.51±1.44 10^12/L. For the same compound, the RDW ([1]; mouse, in vivo, 200 mg/kg) was 17.56±1.04%, the T-BIL ([1]; mouse, in vivo, 200 mg/kg) was 21.14 ± 1.87 µmol/L and the T-CHO ([1]; mouse, in vivo, 200 mg/kg) was 3.12 ± 1.33 mmol/L. It also gave a TBA ([1]; mouse, in vivo, 200 mg/kg) of 12.75 ± 1.54 µmol/L, a TG ([1]; mouse, in vivo, 200 mg/kg) of 2.11 ± 0.45 mmol/L and a UA ([1]; mouse, in vivo, 200 mg/kg) of 182.61 ± 23.8 µmol/L. For the same compound, the WBC ([1]; mouse, in vivo, 200 mg/kg) was 4.25±1.11 10^9/L, the γ-GT ([1]; mouse, in vivo, 200 mg/kg) was 2.75±0.81 U/L and the “EC50 lower than that of ribavirin” value (ZIKV ZG-01 strain; SNB19 cells) was 10 fold. The “concentration above which ZIKV infection was completely undetectable” value (ZIKV ZG-01 strain; SNB19 cells, plaque assay) was “exceeded 18 μM”, the EC90 (ZIKV ZG-01 strain; SNB19 cells, plaque assay, 48 h) was 8.9 ± 0.6 µM and the EC50 (ZIKV ZG-01 strain; Zika virus, A549, 48 h) was 12.2 ± 3.6 µM. The EC90 (ZIKV ZG-01 strain; Zika virus, A549, 48 h, A549 cells, plaque assay, 48 h) was 39.5 ± 4.8 µM, the EC50 (ZIKV ZG-01 strain; Zika virus, Huh-7, 48 h) was 7.7 ± 1.7 µM and the EC90 (ZIKV ZG-01 strain; Zika virus, Huh-7, 48 h, Huh7 cells, plaque assay, 48 h) was 17.8 ± 3.5 µM. It also gave an EC50 (ZIKV ZG-01 strain; Zika virus, SNB-19, 48 h) of 6 ± 1 µM, an EC90 (ZIKV ZG-01 strain; Zika virus, SNB-19, 48 h, SNB19 cells, plaque assay, 48 h) of ~9 µM and an EC50 (ZIKV ZG-01 strain; Zika virus, Vero, 48 h) of 11.7 ± 2.1 µM. It also gave an EC90 (ZIKV ZG-01 strain; Zika virus, Vero, 48 h, Vero cells, plaque assay) of 48.2 ± 5.3 µM.

Source: publication PMC7392643, “Antibiotic fidaxomicin is an RdRp inhibitor as a potential new therapeutic agent against Zika virus” (BMC Medicine, 2020)
